The test system of this experiment is Female mice (Iffa Credo). Nature of the experiment: forced swimming test according to Porsolt et al. (immobility times over 4 minutes, 2nd to 6th minute). It is filed as in vivo. To be noted: Mus musculus, ip, read-out: % inhibition (of the immobility times compared with control animals); for inhibition in vivo at 0.06 mg/kg: 0.06 mg/kg i.p.; for inhibition in vivo at 0.125 mg/kg: 0.125 mg/kg i.p.; for inhibition in vivo at 0.25 mg/kg: 0.25 mg/kg i.p. As to the method:
Thus the products according to the invention were subjected to the forced swimming test according to Porsolt et al. (Archives Internationales de Pharmacodynamie, 1977, 229, 327-336). Female mice (Iffa Credo) weighing 22-24 g are immersed for a period of 6 minutes in a beaker containing 800 ml of water at 24°±1° C. The immobility times are measured over 4 minutes from the 2nd to the 6th minute. The results are expressed as the percentage inhibition of the immobility times of the treated animals compared with the control animals.

Where a name gives a salt, the structure may show the parent alone.

From US5151442A, “Chroman derivative active on the central nervous system, their method of preparation and pharmaceutical compositions in which they are present” (Sanofi, priority 1988, dated 1992) come the findings set out here.

As to `CN(C)CCS[C@@H]1c2cc(C#N)ccc2OC(C)(C)[C@H]1O` (relative stereo) [SR 44652, Trans-6-cyano-2,2-dimethyl-4-(2-dimethylaminoethylthio)-3-hydroxychroman hydrochloride], the inhibition in vivo at 0.06 mg/kg came to 25% and the inhibition in vivo at 0.125 mg/kg came to 27%.

As to `CC1(C)Oc2ccc(C#N)cc2[C@@H](Nc2ccc(F)cc2)[C@@H]1O` (relative stereo) [SR 46143], the inhibition in vivo at 0.06 mg/kg was found to be 27%.

Take `CC1(C)C=C(Sc2ccc(Cl)cc2)c2cc(C#N)ccc2O1` [SR 44554, 4-(4-Chlorophenylthio)-6-cyano-2,2-dimethyl-2H-chromene]: the inhibition in vivo at 0.06 mg/kg is 33%.

Regarding `CC1(C)Oc2ccc(C#N)cc2[C@@H](Nc2ccc(C(F)(F)F)cc2)[C@@H]1O` (relative stereo) [SR 46276], the inhibition in vivo at 0.06 mg/kg came to 40%.

As to `CC1(C)Oc2ccc(C#N)cc2[C@@H](S(=O)(=O)C2CCCCC2)[C@@H]1O` (relative stereo) [SR 44708, Trans-6-cyano-4-cyclohexylsulfonyl-2,2-dimethyl-3-hydroxychroman], the inhibition in vivo at 0.06 mg/kg came out at 21% and the inhibition in vivo at 0.25 mg/kg turned out to be 37%.

Turning to `CN(C)S(=O)(=O)N[C@@H]1c2cc(C#N)ccc2OC(C)(C)[C@H]1O` (relative stereo) [SR 44666, Trans-6-cyano-2,2-dimethyl-4-(N,N-dimethylsulfamoylamino)-3-hydroxychroman], the inhibition in vivo at 0.06 mg/kg came to 21%. In addition, the inhibition in vivo at 1 mg/kg (1 mg/kg i.p.) was 23%.

As for `CC1(C)Oc2ccc(C#N)cc2[C@@H](Nc2ccc(Cl)cc2)[C@@H]1O` (relative stereo) [SR 44546, Trans-4-(4-chloroanilino)-6-cyano-2,2-dimethyl-3-hydroxychroman], the inhibition in vivo at 0.06 mg/kg was 16% and the inhibition in vivo at 0.25 mg/kg came out at 44%.

On to `CC1(C)Oc2ccc(C#N)cc2[C@@H](Nc2ccccc2)[C@@H]1O` (relative stereo) [SR 46142 A], for which the inhibition in vivo at 0.06 mg/kg worked out at 40%.

Take `COC(=O)c1ccccc1N[C@@H]1c2cc(C#N)ccc2OC(C)(C)[C@H]1O` (relative stereo) [SR 44588, Trans-6-cyano-2,2-dimethyl-3-hydroxy-4-(2-methoxycarbonylanilino)chroman]: the inhibition in vivo at 0.06 mg/kg turned out to be 20% and the inhibition in vivo at 0.125 mg/kg was 27%.

`CC1(C)Oc2ccc(C#N)cc2[C@@H](NS(=O)(=O)c2ccccc2C(F)(F)F)[C@@H]1O` (relative stereo) [SR 44665, Trans-6-cyano-2,2-dimethyl-3-hydroxy-4-(2-trifluoromethylbenzene-1-sulfonamido)chroman]: the inhibition in vivo at 0.06 mg/kg amounted to 24%.
